{"source": "patent US11191754B2", "about": "“Inhibitors of nucleotidyl transferases and uses in herpes and hepatitis viral infections therefor” (Saint Louis University, priority 2015, dated 2021)", "key": {"[1]": {"tested_on": "HSV-1", "experiment": "Anti-HSV-1 replication assay (virus yield by plaque assay on Vero cells)", "type": "cell-based, herpes simplex virus 1 (HSV-1)", "conditions": "for HSV-1 inhibition category: semi-quantitative replication inhibition assay", "method": "Vero cells were maintained in Dulbecco's modified Eagle's medium (DMEM) containing 3% newborn calf serum, 3% bovine growth serum, 2 mM L-glutamine and 100 IU/mL penicillin and 0.1 mg/mL streptomycin (P/S). HSV-1 #6 and HSV-2 #1 are de-identified clinical isolates from the Saint Louis University Hospital. Stocks were prepared after a single passage in cell culture and were titered by standard plaque assay (Knipe and Spang, 1982). Wild-type HSV-2 used in FIG. 3 was laboratory strain 333. […] Virus stocks were grown and titered on Vero cells (Morrison and Knipe, 1996).\nCompounds to be screened were diluted in PBS supplemented to contain 2% newborn calf serum and 1% glutamine, and added in 100 μL volume to confluent cell monolayers in 24-well cluster plates. Immediately thereafter HSV-1 and HSV-2, diluted in the supplemented PBS medium, were added to the wells in 50 μl volume such that the final concentration of compound was 50 μM, 5 μM and 1 μM and the multiplicity of infection was 0.1. The plates were incubated at 37° C. for 1 hour and then virus-containing inoculum was removed and the wells were washed once in PBS. Compound, diluted to 50 μM, 5 μM and 1 μM in DMEM supplemented to contain 2% newborn calf serum and 1% each penicillin/streptomycin, was added at 0.5 mL/well. Plates were incubated at 37° C. an additional 23 hours, and then the plates were visually inspected through a phase contrast microscope for cytopathic effect, and for toxic effect. The entire contents of each well were collected by scraping. Samples were frozen at −80° C., and then subsequently thawed, sonicated, and infectious virus titer was determined by standard plaque assay on Vero cell monolayers. Because the compounds were dissolved at 10 mM in 100% DMSO, equivalent dilutions of DMSO were added to additional wells as a control for effects of the diluent. Each experiment was repeated once. EC50 values were determined as above except that serial dilutions of the compound to be tested were prepared starting at 50 μM. The inhibitory values were calculated by non-linear curve-fitting in GraphPad Prism."}, "[2]": {"experiment": "in vitro", "type": "cell-based", "conditions": "African green monkey", "method": "Qualitative assessments of cytotoxicity were done visually by inspecting the cells in the primary screening assays. For the quantitative assays, cells were plated in 96-well plates at 1.0×10^4 per well. The next day the compounds were added at 0.78 to 100 μM in a final concentration of 1% (v/v) DMSO, and the cells were incubated for 24 hours under conditions identical to those employed for the viral replication inhibition assays. Mitochondrial toxicity was measured by incubating the cells with 0.25 mg/mL thiazolyl blue tetrazolium bromide (MTT, SigmaAldrich Chemical Co.), the cultures were incubated for 60 min, metabolites were solubilized in acidic isopropanol, and absorbance was read at 570 nm. CC50 values were calculated by non-linear curve fitting using GraphPad Prism.\nA quantitative toxicity measurement was conducted. Toxicity was assessed by measuring release of intracellular proteases into the culture medium due to cellular lysis. Cells were plated in 96-well plates at 1.0×10^4 per well. The next day compound was added in concentrations ranging from 0.78 to 100 μM in a final concentration of 1% (v/v) DMSO. The cells were incubated for 24 hours under conditions identical to those employed for the viral replication inhibition assays, and then […] according to the manufacturer's instructions. […]"}, "[3]": {"molecular_target": "T1, human RNaseH1 (Homo sapiens, UniProt O60930)", "T1 construct": "made in house; host or cells: E. coli", "T1 sequence (O60930 1-286)": "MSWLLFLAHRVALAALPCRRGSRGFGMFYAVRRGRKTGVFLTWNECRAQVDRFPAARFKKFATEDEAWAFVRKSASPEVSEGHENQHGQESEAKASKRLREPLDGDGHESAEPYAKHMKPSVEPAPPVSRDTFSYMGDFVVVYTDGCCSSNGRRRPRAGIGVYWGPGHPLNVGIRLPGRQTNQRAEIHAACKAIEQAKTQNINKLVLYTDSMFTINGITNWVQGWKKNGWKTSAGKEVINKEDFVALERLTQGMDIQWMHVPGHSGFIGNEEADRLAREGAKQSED", "experiment": "Human RNaseH1 oligonucleotide-directed RNA cleavage assay", "type": "biochemical", "conditions": "recombinant human RNaseH1", "method": "Recombinant HBV RNaseH and human RNaseH1 were expressed in E. coli and partially purified by nickel-affinity chromatography as previously described in Tavis, et al. (2013). The enriched extracts were dialyzed into 50 mM HEPES pH 7.3, 300 mM NaCl, 20% glycerol, and 5 mM DTT and stored in liquid nitrogen.\nRNaseH activity was measured using an oligonucleotide-directed RNA cleavage assay as previously described in Hu, et al., Tavis, et al., and Cai, et al. (2013; 2013; and 2014, respectfully). Briefly, 6 μL protein extract was mixed on ice with an internally ^32P-labeled 264 nt RNA derived from the Duck Hepatitis B Virus genome (DRF+ RNA) plus 3 μg oligonucleotide D2507- or its inverse-complement oligonucleotide D2526+ as a negative control. This mixture was incubated with test compounds in 50 mM Tris pH 8.0, 190 mM NaCl, 5 mM MgCl2, 3.5 mM DTT, 0.05% NP40, 6% glycerol, and 1% DMSO at 42° C. for 90 minutes. Cleavage products were resolved by denaturing polyacrylamide gel electrophoresis, detected by autoradiography, and quantified using ImageJ. Non-specific background values were determined from the incorrect oligonucleotide negative control lane and subtracted from all experimental values. IC50 values were then calculated with GraphPad Prism using three-parameter log(inhibitor) vs. response non-linear curve fitting with the curve minimum set to zero to reflect background subtraction."}, "[4]": {"experiment": "Mouse liver microsome assay", "type": "in vitro ADME", "conditions": "for CLint scaled at 1 μM: mouse, liver microsomes", "method": "Microsomal incubations are run at a final P450 concentration of 0.25 μM. […] The mixture is prewarmed for 5 min at 37° C. To initiate the reaction a 12 mM stock of NAPDH (1.2 mM, final concentration) is added to the warmed microsomal mixture and aliquots are removed at 0, 5, 10, 20 and 30 min. […] Samples are vortexed and spun down at 3200 rpm for 5 min. The supernant is transferred to 96-deep well plates and run on LC/MS/MS."}}, "note": "Values joined by “and” are separate entries in the source; they are usually repeats but may differ in a detail not shown here. Identical values can stand only once. Like-named read-outs stand apart in the source and are kept apart here.", "data": [{"molecule": "Cc1cc(CC(C)CC(C)(C)C)n(O)c(=O)c1", "note": "(centres unmarked) [#191, Piroctone olamine]", "values": [{"measurement": "HSV-1 inhibition category", "setting": "[1]; 1 μM", "result": "intermediate (1 to 3 log10 suppression, which equals 10- to 1,000-fold reduction)"}, {"measurement": "HSV-1 Log10 suppression 1 μM", "setting": "[1]; 1 μM, Vero cells, moi 0.1, 24 h, relative to DMSO control", "result": 2.71, "unit": "log10"}, {"measurement": "HSV-1 replication inhibition, fold", "setting": "[1]; 5 μM", "result": "4,074 fold"}, {"measurement": "HSV-1 inhibition category", "setting": "[1]; 5 μM", "result": "strong (3 to 6 log10 suppression, or 1,000- to 1,000,000-fold reduction)"}, {"measurement": "HSV-1 Log10 suppression 5 μM", "setting": "[1]; 5 μM, Vero cells, moi 0.1, 24 h, relative to DMSO control", "result": "3.61 log10 and 3.53 log10"}, {"measurement": "HSV-1 inhibition category", "setting": "[1]; 50 μM", "result": "strong (3 to 6 log10 suppression, or 1,000- to 1,000,000-fold reduction)"}, {"measurement": "HSV-1 Log10 suppression 50 μM", "setting": "[1]; 50 μM, Vero cells, moi 0.1, 24 h, relative to DMSO control", "result": 3.85, "unit": "log10"}, {"measurement": "CC50 at 24 h", "setting": "[2]", "result": "> 100", "unit": "µM"}, {"measurement": "Anti-human RNase H1", "setting": "[3]", "result": "did not inhibit"}, {"measurement": "ER", "setting": "[4]; extraction ratio, mouse liver microsomes", "result": 0.09}, {"measurement": "Non-P450 turn-over", "setting": "[4]; mouse liver microsomes", "result": "No"}, {"measurement": "half-life at 1 μM", "setting": "[4]; mouse liver microsomes, 1 μM compound, read-out: t ½", "result": "> 120", "unit": "min"}, {"measurement": "CLint scaled at 1 μM", "setting": "[4]; 1 μM compound, read-out: CL ‘hep", "result": 8, "unit": "mL/min/kg"}, {"measurement": "CLint scaled at 1 μM", "setting": "[4]; 1 μM compound, read-out: CL’int", "result": 9, "unit": "mL/min/kg"}]}]}
